Data published in patent US20160115540A1, “PRODRUGS AND DRUGS” (Biogen MA Inc., priority 2013, published 2016).
Structures can show the parent of a compound that is named as a salt.

Tested on: blood and tissues
Test: Transcriptional profiling, acute (single) dosing, EAE mice: blood and tissues
Assay type: in vivo
Conditions: for Number of differentially expressed genes identified: Brain / Number of differentially expressed genes identified: Cerebellum / Number of differentially expressed genes identified: Lymph Node / Number of differentially expressed genes identified: Spleen / Number of differentially expressed genes identified: Whole blood / Number of differentially expressed genes identified: Spinal Cord: EAE, Acute Dosing
Source text: EAE induction is generally performed by immunization with brain extracts, CNS proteins (such as myelin basic protein), or peptides from such protein emulsified in an adjuvant such as complete Freund's adjuvant, e.g., as described in Linker et al., Brain. 2011 March 134(Pt3): 678-92. […] FIG. 17 depicts exemplary immunophenotyping panels used to analyze various immune cell populations (e.g., T cells, T regulatory cells, NK cells, B cells, myeloid cells). […] The number of independent mice whose tissues were harvested for transcript profiling studies and whose data passed QC is shown in TABLE 15. Animals were exposed to CO2 and whole blood collected via cardiac puncture. Two 100 μl aliquots of whole blood were collected in 1.5 mL microcentrifuge tubes and snap frozen in liquid nitrogen. Peripheral (liver, spleen, kidney and jejunum) and CNS brain (cerebellum, hippocampus, striatum and cortex) tissues were harvested and snap frozen in liquid nitrogen, with special care taken to collect tissues of similar size and from the same location. All samples were stored at -80° C. until RNA extraction was conducted. For RNA preparation, frozen tissues were placed in 2 mL RNAse-free 96-well blocks with 1.5 mL QIAzol Lysis Reagent (QIAgen) and a 3.2 mm stainless steel bead (BioSpec Products, Bartlesville, Okla.). Tissues were disrupted for four cycles of 45 seconds in a Mini-Beadbeater (Biospec Products). RNA was extracted in chloroform and the aqueous phase was mixed with an equal volume of 70% ethanol. Extracted RNA was applied to RNeasy 96 plates and purified by the spin method according to the manufacturer's protocol (RNeasy 96 Universal Tissue Protocol, QIAgen, Hilden Germany). 50 ul of snap frozen mouse blood was re-suspended in lysis buffer with proteinase K and arrayed into deep-well plates for automated RNA extraction. RNA extractions were completed on […] (Beckman Coulter, Indianapolis, Ind.) using Agencourt RNAdvance Blood kit (Part number A35604) according to the manufacturer's specifications. RNA integrity was assessed using the HT RNA reagent kit (Part number 760410, Caliper Life Sciences, Hopkinton, Mass.) using a LabChip GX (PerkinElmer, Waltham, Mass.). RNA samples with a RQS score of >8.0 were considered high quality for downstream microarray processing. […] Washing and staining of the hybridized arrays were completed as described in the GeneChip Expression analysis technical manual for HT plate arrays using the Genechip® Array Station (Affymetrix, Santa Clara, Calif.) with modifications as described in […] et al. The processed GeneChip® plate arrays were scanned using GeneTitan scanner (Affymetrix, Santa Clara, Calif.). Affymetrix scans were subject to quality control (QC) measures. These tests included a visual inspection of the distribution of raw signal intensities and an assessment of RNA degradation, relative log expression (RLE), and normalized unscaled standard error (NUSE). All sample scans that passed these QC metrics were included in the analysis. […] Nucleic Acids Res 2003; 31:e15; Li C, et al. Genome Biol 2001; 2:[…]0032). […] Stat Appl Genet Mol Biol 2004; 3:Article3). […] Springer Science+Business Media 2005). […] Generally, no distinct sample groupings were apparent from this analysis; however, in the following cohorts, differences in EAE severity across the mice were manifest in global gene expression patterns: An example of this animal grouping is shown in FIG. 33 for the spinal cord from the chronically-dosed 7 h EAE mice. […] Three distinct groups of mice result from unsupervised clustering, and these animal groups correlate with the cumulative EAE score. […] Subsequent analyses for the cohorts listed above only included those animals with the most severe EAE scores; however, for the cohorts 'Spinal Cord, Acute Dosing, 7 h' and 'Spleen, Acute Dosing, 12 h,' there were an insufficient number of mice in the different treatment groups to perform such a sub-analysis. […]

[1] = 100 mpk DMF-vs-90 mpk MMF, 7 h after last dosing
[2] = 100 mpk DMF-vs-90 mpk MMF, 12 h after last dosing
[3] = 100 mpk DMF-vs-Vehicle, 7 h after last dosing
[4] = 100 mpk DMF-vs-Vehicle, 12 h after last dosing
[5] = lymph node, 100DMF-vs-Veh, 12 h
[6] = whole blood, 100DMF-vs-Veh, 7 h

COC(=O)/C=C/C(=O)OC [DMF, dimethyl fumarate]
Number of differentially expressed genes identified: Brain [1]: 0 | Number of differentially expressed genes identified: Cerebellum [1]: 0 | Number of differentially expressed genes identified: Lymph Node [1]: 0 | Number of differentially expressed genes identified: Spleen [1]: 0 | Number of differentially expressed genes identified: Whole blood [1]: 0 | Number of differentially expressed genes identified: Brain [2]: 0 | Number of differentially expressed genes identified: Cerebellum [2]: 0 | Number of differentially expressed genes identified: Lymph Node [2]: 0 | Number of differentially expressed genes identified: Spinal Cord [2]: 0 | Number of differentially expressed genes identified: Whole blood [2]: 0 | Number of differentially expressed genes identified: Brain [3]: 0 | Number of differentially expressed genes identified: Cerebellum [3]: 0 | Number of differentially expressed genes identified: Lymph Node [3]: 7 | Number of differentially expressed genes identified: Spleen [3]: 21 | Number of differentially expressed genes identified: Whole blood [3]: 3 | Number of differentially expressed genes identified: Brain [4]: 0 | Number of differentially expressed genes identified: Cerebellum [4]: 0 | Number of differentially expressed genes identified: Lymph Node [4]: 2 | Number of differentially expressed genes identified: Spinal Cord [4]: 1 | Number of differentially expressed genes identified: Whole blood [4]: 0 | differentially expressed genes (cerebellum, 100DMF-vs-90MMF, 7 h): None | differentially expressed genes (cerebellum, 100DMF-vs-90MMF, 12 h): None | differentially expressed genes (cerebellum, 100DMF-vs-Veh, 7 h): None | differentially expressed genes (cerebellum, 100DMF-vs-Veh, 12 h): None | differentially expressed genes (lymph node, 100DMF-vs-90MMF, 7 h): None | differentially expressed genes (lymph node, 100DMF-vs-90MMF, 12 h): None | FC Aox1 (1419435_PM_at) (lymph node, 100DMF-vs-Veh, 7 h): 2.16 | FC F3 1417408_PM_at (lymph node, 100DMF-vs-Veh, 7 h): 1.59 | FC Gclm 1439050_PM_at (lymph node, 100DMF-vs-Veh, 7 h): 1.53 | FC Nqo1 (1423627_PM_at) (lymph node, 100DMF-vs-Veh, 7 h): 2.19 | FC Pir (1429001_PM_at) (lymph node, 100DMF-vs-Veh, 7 h): 1.52 | FC Srxn1 (1419942_PM_at) (lymph node, 100DMF-vs-Veh, 7 h): 1.71 | FC Srxn1 (1426875_PM_s_at) (lymph node, 100DMF-vs-Veh, 7 h): 1.68 | FC Aox1 (1419435_PM_at) [5]: 1.69 | FC Nqo1 (1423627_PM_at) [5]: 1.69 | differentially expressed genes (spinal cord, 100DMF-vs-90MMF, 12 h): None | FC Blvrb (1451386_PM_at) (spinal cord, 100DMF-vs-Veh, 12 h): 1.84 | differentially expressed genes (spleen, 100DMF-vs-90MMF, 7 h): None | FC 1441413_PM_at (spleen, 100DMF-vs-Veh, 7 h): 1.52 | FC 1458902_PM_at (spleen, 100DMF-vs-Veh, 7 h): 1.69 | FC Aox1 (1419435_PM_at) (spleen, 100DMF-vs-Veh, 7 h): 1.74 | FC Cat 1416430_PM_at (spleen, 100DMF-vs-Veh, 7 h): 1.63 | FC Dennd4a 1435975_PM_at (spleen, 100DMF-vs-Veh, 7 h): 1.56 | FC Dnmt31 1425035_PM_s_at (spleen, 100DMF-vs-Veh, 7 h): 1.81 | FC Gclm 1439050_PM_at (spleen, 100DMF-vs-Veh, 7 h): 2.02 | FC Gsta3 (1423436_PM_at) (spleen, 100DMF-vs-Veh, 7 h): 1.74 | FC Gsta3 (1423437_PM_at) (spleen, 100DMF-vs-Veh, 7 h): 1.55 | FC Higd1c /// Mettl7a1 /// Mettl7a2 1434150_PM_a_at (spleen, 100DMF-vs-Veh, 7 h): 2.00 | FC Il1f9 1425958_PM_at (spleen, 100DMF-vs-Veh, 7 h): 2.33 | FC Kif22 1437716_PM_x_at (spleen, 100DMF-vs-Veh, 7 h): 1.53 | FC LOC677317 /// Me1 1416632_PM_at (spleen, 100DMF-vs-Veh, 7 h): 1.52 | FC Nqo1 (1423627_PM_at) (spleen, 100DMF-vs-Veh, 7 h): 3.34 | FC Pir (1429001_PM_at) (spleen, 100DMF-vs-Veh, 7 h): 2.99 | FC Polh 1447837_PM_x_at (spleen, 100DMF-vs-Veh, 7 h): 1.51 | FC Srxn1 (1419942_PM_at) (spleen, 100DMF-vs-Veh, 7 h): 2.08 | FC Srxn1 (1426875_PM_s_at) (spleen, 100DMF-vs-Veh, 7 h): 2.08 | FC Srxn1 (1451680_PM_at) (spleen, 100DMF-vs-Veh, 7 h): 1.84 | FC Tmem41b 1428586_PM_at (spleen, 100DMF-vs-Veh, 7 h): 1.61 | FC Ugt1a1 /// Ugt1a10 /// Ugt1a2 /// Ugt1a5 /// Ugt1a6a /// Ugt1a6b /// Ugt1a7c /// Ugt1a9 (1426261_PM_s_at) (spleen, 100DMF-vs-Veh, 7 h): 1.51 | differentially expressed genes (whole blood, 100DMF-vs-Veh, 12 h): None | differentially expressed genes (whole blood, 100DMF-vs-90MMF, 7 h): None | differentially expressed genes (whole blood, 100DMF-vs-90MMF, 12 h): None | FC Dtx4 1436545_PM_at [6]: 1.72 | FC Egln3 1418649_PM_at [6]: 1.82 | FC Rnf128 (1449036_PM_at) [6]: 1.62
